In ChEMBL document CHEMBL1137583 (Bioorg Med Chem Lett, 2007):

Legend:
[1] = target: Melanin-concentrating hormone receptor 1 (Homo sapiens, UniProt Q99705); test: Inhibition of 125I-MCH binding to human MCH-R1 expressed in CHO cell membranes
Mus musculus = test: Inhibition of ex vivo MCH-R1 binding following 30 mg/kg peroral dose in mice after 6hr; format: functional; details: route oral
[2] = AUC (0-6hr) in rats following 10 mg/kg peroral dose; format: ADME, organism-based; parameters: time < 6 hr, dose 10 mg/kg, route oral; details: rat, plasma, po

Chain of Melanin-concentrating hormone receptor 1 (Q99705 whole entry): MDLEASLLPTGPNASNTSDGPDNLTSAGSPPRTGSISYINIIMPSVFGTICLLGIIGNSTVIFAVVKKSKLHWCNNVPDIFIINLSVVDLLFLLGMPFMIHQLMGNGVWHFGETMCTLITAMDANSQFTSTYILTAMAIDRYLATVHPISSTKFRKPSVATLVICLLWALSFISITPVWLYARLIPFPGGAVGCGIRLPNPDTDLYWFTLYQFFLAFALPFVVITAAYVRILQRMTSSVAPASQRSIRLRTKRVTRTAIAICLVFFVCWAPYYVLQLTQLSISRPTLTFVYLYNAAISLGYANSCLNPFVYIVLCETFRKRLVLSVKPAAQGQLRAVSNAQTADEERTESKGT

CN1CCN(CCCN(C(=O)Nc2ccc(F)c(Cl)c2)C2CCc3cc(C#N)ccc3C2)CC1 (centres undefined)
Ki [1]: 340 nM

CN1CCN(CCCN(C(=O)Nc2ccc(F)c(Cl)c2)C2CCc3ccc(C#N)cc3C2)CC1 (centres undefined)
inhibition in vivo at 30 mg/kg (Mus musculus): 84% | AUC(0-t) at 6 h [2]: 642 ng·h/mL | Ki [1]: 8.5 nM

CN1CCN(CCCN(C(=O)Nc2ccc(F)c(Cl)c2)C2CCc3ccccc3C2)CC1 (centres undefined)
Ki [1]: 380 nM

CCNC(=O)Nc1ccc2c(c1)CC(N(CCCN1CCN(C)CC1)C(=O)Nc1ccc(F)c(Cl)c1)CC2 (centres undefined)
Ki [1]: 160 nM

CN1CCN(CCCN(C(=O)Nc2ccc(F)c(Cl)c2)C2CCc3ccc(N)cc3C2)CC1 (centres undefined)
Ki [1]: 260 nM

COc1ccc2c(c1)CCC(N(CCCN1CCN(C)CC1)C(=O)Nc1ccc(F)c(Cl)c1)C2 (centres undefined)
Ki [1]: 190 nM

CN1CCN(CCCN(C(=O)Nc2ccc(F)c(Cl)c2)[C@@H]2CC[C@]3(c4cccc(C#N)c4)C[C@@H]3C2)CC1
Ki [1]: 4 nM

CN1CCN(CCCN(C(=O)Nc2ccc(F)c(Cl)c2)C2CCc3ccc(S(=O)(=O)N(C)C)cc3C2)CC1 (centres undefined)
Ki [1]: 3000 nM

CN1CCN(CCCN(C(=O)Nc2ccc(F)c(Cl)c2)C2CCc3ccc(S(C)(=O)=O)cc3C2)CC1 (centres undefined)
Ki [1]: 1300 nM

CC(=O)Nc1ccc2c(c1)CC(N(CCCN1CCN(C)CC1)C(=O)Nc1ccc(F)c(Cl)c1)CC2 (centres undefined)
inhibition in vivo at 30 mg/kg (Mus musculus): 23% | AUC(0-t) at 6 h [2]: 195 ng·h/mL

CNS(=O)(=O)c1ccc2c(c1)CC(N(CCCN1CCN(C)CC1)C(=O)Nc1ccc(F)c(Cl)c1)CC2 (centres undefined)
Ki [1]: 3000 nM
